# Data reported in patent US7998940B2, “Aptamers to von Willebrand factor and their use as thrombotic disease therapeutics” (Archemix Corp., priority 2004, dated 2011).
# Read-outs that look alike come from different tables or passages of the source. Oligonucleotides are written 5' to 3', each unit as a sugar letter and its base; * is a phosphorothioate linkage, no mark a phosphodiester; rarer units and linkages stand in square brackets, end groups in braces. Plain capitals give the bases only. [PEG] = polyethylene glycol spacer within the chain; [invdT] = inverted (3'-3') thymidine; d = 2'-deoxy (DNA); m = 2'-O-methyl
# System: full length human vWF (SEQ ID NO 7)
# Assay: dot blot KD determination and extent of binding, full length human vWF;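 note: dot blot binding of aptamers to full length human vWF across a protein titration, incubated 30 minutes at room temperature in 1x DPBS with BSA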
# Details: for % binding @ 100 nM vWF: extent of aptamer binding at 100 nM full length human vWF; for Kd: full length human vWF, read-out: KD
# [1] = Phase 1 modification, dot blot, 8 point protein titration
# [2] = Phase 3 modification, dot blot, 8 point protein titration
# Experimental: Based on this initial screen, KDs were determined for 3 of the vWF dependent binding sequences using the dot blot assay. […] A 12 point protein titration was used in the dot blot assay (300 nM, 100 nM, 30 nM, 10 nM, 3 nM, 1 nM, 300 pM, 100 pM, 30 pM, 10 pM, 3 pM, 0 pM) in 1×DPBS plus 0.1 mg/mL BSA at room temperature for 30 minutes.
# An 8 point protein titration was used in the dot blot binding assay (100n M, 30 nM, 10 nM, 3 nM, 1 nM, 300 pM, 100 pM, 0 pM)) in 1× Dulbecco's PBS containing 0.1 BSA (final volume of 50 uL) for 30 minutes at room temperature.
Substance,% binding @ 100 nM vWF (Phase 1 modification),Kd [1],other results
ARC1200: ARC1172 with one residue replaced by 2'-O methyl residue (DNA dGdGdCdGdTdGmCdAdGdTdGdCdCdTdTdCdGdGdCdCdGdTdGdCdGdGdTdGdCdCdTdCdCdGdTdCdAdCdGdCdC[invdT]; aptamer),25%,5 nM,–
ARC1375: ARC1361 with single phosphorothioate phosphate backbone modification (mGmCmGmUdGdCdAmGmUmGmCmCmUmUmCmGmGmCdCmGdTmGdCdGdGdTmGmC*dCmUdCdCmGmUdCmAmCmGmC[invdT]; aptamer),–,–,% binding @ 100 nM vWF (Phase 3 modification): 25.5%; Kd [2]: 8.8 nM
ARC1219: ARC1172 with one residue replaced by 2'-O methyl residue (DNA dGdGdCdGdTdGdCdAdGdTdGdCdCdTdTdCdGdGdCdCdGdTdGdCdGmGdTdGdCdCdTdCdCdGdTdCdAdCdGdCdC[invdT]; aptamer),33%,3 nM,–
ARC1369: ARC1361 with single phosphorothioate phosphate backbone modification (mGmCmGmUdGdCdAmGmUmGmCmCmUmUmCmGmGmCdCmGdT*mGdCdGdGdTmGmCdCmUdCdCmGmUdCmAmCmGmC[invdT]; aptamer),–,–,% binding @ 100 nM vWF (Phase 3 modification): 26.2%; Kd [2]: 16.3 nM
dGdGdCdGTdGdCdAdGTdGdCdCTTdCdGdGdCdCdG-s-TdGdCdGdGTdGdCdCTdCdCdGTdCdAdCdGdCdC-3T (dGdGdCdGdTdGdCdAdGdTdGdCdCdTdTdCdGdGdCdCdG*dTdGdCdGdGdTdGdCdCdTdCdCdGdTdCdAdCdGdCdC[invdT]) [ARC1759],–,–,"% binding @ 100 nM vWF (Phase 4 and 5 modification): 46%; Kd (Phase 4 and 5 modification): 0.7 nM; binding to human vWF (in words, dot blot): measurable improvement in affinity relative to ARC1172"
ARC1240: ARC1172 with composite 2'-O methyl replacements in the stem regions (dGdGdCdGdTdGdCdAdGdTmGmCmCdTdTdCmGmGmCdCdGdTdGdCdGdGdTdGdCdCdTdCdCdGdTdCdAdCdGdCdC[invdT]; aptamer),40%,4 nM,–
ARC1208: ARC1172 with one residue replaced by 2'-O methyl residue (DNA dGdGdCdGdTdGdCdAdGdTdGdCdCdTmUdCdGdGdCdCdGdTdGdCdGdGdTdGdCdCdTdCdCdGdTdCdAdCdGdCdC[invdT]; aptamer),45%,2 nM,–
ARC1197: ARC1172 with one residue replaced by 2'-O methyl residue (DNA dGdGdCmGdTdGdCdAdGdTdGdCdCdTdTdCdGdGdCdCdGdTdGdCdGdGdTdGdCdCdTdCdCdGdTdCdAdCdGdCdC[invdT]; aptamer),46%,2 nM,–
ARC1363: ARC1361 with single phosphorothioate phosphate backbone modification (mGmCmGmUdG*dCdAmGmUmGmCmCmUmUmCmGmGmCdCmGdTmGdCdGdGdTmGmCdCmUdCdCmGmUdCmAmCmGmC[invdT]; aptamer),–,–,% binding @ 100 nM vWF (Phase 3 modification): 32.7%; Kd [2]: 12.7 nM
ARC1380: ARC1361 with single phosphorothioate phosphate backbone modification (mGmCmGmUdGdCdAmGmUmGmCmCmUmUmCmGmGmCdCmGdTmGdCdGdGdTmGmCdCmUdCdCmGmU*dCmAmCmGmC[invdT]),–,–,% binding @ 100 nM vWF (Phase 3 modification): 32.5%; Kd [2]: 12 nM
ARC1215: ARC1172 with one residue replaced by 2'-O methyl residue (DNA dGdGdCdGdTdGdCdAdGdTdGdCdCdTdTdCdGdGdCdCdGmUdGdCdGdGdTdGdCdCdTdCdCdGdTdCdAdCdGdCdC[invdT]; aptamer),2%,3 nM,–
mCmGmUdGdCdAmGmUmGmCmCPEGmGmGmCdCmG-s-TmGdCdGdGTmGmCdCmUdCdCmGmUmCmAmCmG-3T (mCmGmUdGdCdAmGmUmGmCmC[PEG]mGmGmCdCmG*dTmGdCdGdGdTmGmCdCmUdCdCmGmUmCmAmCmG[invdT]; aptamer) [ARC1532],–,–,% binding @ 100 nM vWF (Phase 4 and 5 modification): 19.3%; Kd (Phase 4 and 5 modification): 2.6 nM
ARC1214: ARC1172 with one residue replaced by 2'-O methyl residue (DNA dGdGdCdGdTdGdCdAdGdTdGdCdCdTdTdCdGdGdCdCmGdTdGdCdGdGdTdGdCdCdTdCdCdGdTdCdAdCdGdCdC[invdT]; aptamer),39%,3 nM,–
ARC1201: ARC1172 with one residue replaced by 2'-O methyl residue (DNA dGdGdCdGdTdGdCmAdGdTdGdCdCdTdTdCdGdGdCdCdGdTdGdCdGdGdTdGdCdCdTdCdCdGdTdCdAdCdGdCdC[invdT]; aptamer),6%,0.9 nM,–
ARC1365: ARC1361 with single phosphorothioate phosphate backbone modification (mGmCmGmUdGdCdA*mGmUmGmCmCmUmUmCmGmGmCdCmGdTmGdCdGdGdTmGmCdCmUdCdCmGmUdCmAmCmGmC[invdT]; aptamer),–,–,% binding @ 100 nM vWF (Phase 3 modification): 35.4%; Kd [2]: 10.8 nM
ARC1216: ARC1172 with one residue replaced by 2'-O methyl residue (DNA dGdGdCdGdTdGdCdAdGdTdGdCdCdTdTdCdGdGdCdCdGdTmGdCdGdGdTdGdCdCdTdCdCdGdTdCdAdCdGdCdC[invdT]; aptamer),40%,0.6 nM,–
ARC1229: ARC1172 with one residue replaced by 2'-O methyl residue (dGdGdCdGdTdGdCdAdGdTdGdCdCdTdTdCdGdGdCdCdGdTdGdCdGdGdTdGdCdCdTdCdCdGdTmCdAdCdGdCdC[invdT]; aptamer),37%,5 nM,–
mCmGmUdGdCdAmGmUmGmCmCmUmUmCmGmGmCdCmG-s-TmGdCdGdGTmGmCdCmUdCdCmGmUmCmAmCmG-3T (mCmGmUdGdCdAmGmUmGmCmCmUmUmCmGmGmCdCmG*dTmGdCdGdGdTmGmCdCmUdCdCmGmUmCmAmCmG[invdT]; aptamer) [ARC1529],–,–,% binding @ 100 nM vWF (Phase 4 and 5 modification): 22.6%; Kd (Phase 4 and 5 modification): 12.3 nM
ARC1206: ARC1172 with one residue replaced by 2'-O methyl residue (DNA dGdGdCdGdTdGdCdAdGdTdGdCmCdTdTdCdGdGdCdCdGdTdGdCdGdGdTdGdCdCdTdCdCdGdTdCdAdCdGdCdC[invdT]; aptamer),50%,2 nM,–
ARC1366: ARC1361 with single phosphorothioate phosphate backbone modification (mGmCmGmUdGdCdAmGmUmGmCmCmUmUmCmGmGmC*dCmGdTmGdCdGdGdTmGmCdCmUdCdCmGmUdCmAmCmGmC[invdT]; aptamer),–,–,% binding @ 100 nM vWF (Phase 3 modification): 28.9%; Kd [2]: 15.5 nM
mGmGmCmGmUdGdCdAmGmUmGmCmCmUmUmCmGmGmCdCdGTdGdCdGdGTdGdCdCTdCdCdGTdCmAmCmGmCmC-3T (mGmGmCmGmUdGdCdAmGmUmGmCmCmUmUmCmGmGmCdCdGdTdGdCdGdGdTdGdCdCdTdCdCdGdTdCmAmCmGmCmC[invdT]; aptamer) [ARC1341],–,–,% binding @ 100 nM vWF (Phase 2 modification): 26%; Kd (Phase 2 modification): 22.5 nM
ARC1202: ARC1172 with one residue replaced by 2'-O methyl residue (DNA dGdGdCdGdTdGdCdAmGdTdGdCdCdTdTdCdGdGdCdCdGdTdGdCdGdGdTdGdCdCdTdCdCdGdTdCdAdCdGdCdC[invdT]; aptamer),56%,0.4 nM,–
mGmGmCmGmUdG-s-dC-s-dAmGmUmGmCmCmUmUmCmGmGmC-s-dCmGTmGdC-s-dG-s-dGTmGmCdCmUdC-s-dCmGmUmCmAmCmGmCmC-3T (mGmGmCmGmUdG*dC*dAmGmUmGmCmCmUmUmCmGmGmC*dCmGdTmGdC*dG*dGdTmGmCdCmUdC*dCmGmUmCmAmCmGmCmC[invdT]) [ARC1344],–,–,% binding @ 100 nM vWF (Phase 2 modification): 17%; Kd (Phase 2 modification): 4.8 nM
ARC1373: ARC1361 with single phosphorothioate phosphate backbone modification (mGmCmGmUdGdCdAmGmUmGmCmCmUmUmCmGmGmCdCmGdTmGdCdGdG*dTmGmCdCmUdCdCmGmUdCmAmCmGmC[invdT]; aptamer),–,–,% binding @ 100 nM vWF (Phase 3 modification): 33.0%; Kd [2]: 7.1 nM
ARC1364: ARC1361 with single phosphorothioate phosphate backbone modification (mGmCmGmUdGdC*dAmGmUmGmCmCmUmUmCmGmGmCdCmGdTmGdCdGdGdTmGmCdCmUdCdCmGmUdCmAmCmGmC[invdT]; aptamer),–,–,% binding @ 100 nM vWF (Phase 3 modification): 36.9%; Kd [2]: 8.2 nM
ARC1225: ARC1172 with one residue replaced by 2'-O methyl residue (dGdGdCdGdTdGdCdAdGdTdGdCdCdTdTdCdGdGdCdCdGdTdGdCdGdGdTdGdCdCdTmCdCdGdTdCdAdCdGdCdC[invdT]; aptamer),16%,11 nM,–
ARC1212: ARC1172 with one residue replaced by 2'-O methyl residue (DNA dGdGdCdGdTdGdCdAdGdTdGdCdCdTdTdCdGdGmCdCdGdTdGdCdGdGdTdGdCdCdTdCdCdGdTdCdAdCdGdCdC[invdT]; aptamer),49%,2 nM,–
mGmGmCmGmUdG-s-dCdAmGmUmGmCmCmUmUmCmGmGmC-s-dCmGTmGdCdG-s-dGTmGmCdCmUdC-s-dCmGmUmCmAmCmGmCmC-3T (mGmGmCmGmUdG*dCdAmGmUmGmCmCmUmUmCmGmGmC*dCmGdTmGdCdG*dGdTmGmCdCmUdC*dCmGmUmCmAmCmGmCmC[invdT]) [ARC1343],–,–,% binding @ 100 nM vWF (Phase 2 modification): 21%; Kd (Phase 2 modification): 23.9 nM
ARC1196: ARC1172 with one residue replaced by 2'-O methyl residue (DNA dGdGmCdGdTdGdCdAdGdTdGdCdCdTdTdCdGdGdCdCdGdTdGdCdGdGdTdGdCdCdTdCdCdGdTdCdAdCdGdCdC[invdT]; aptamer),46%,2 nM,–
ARC1217: ARC1172 with one residue replaced by 2'-O methyl residue (DNA dGdGdCdGdTdGdCdAdGdTdGdCdCdTdTdCdGdGdCdCdGdTdGmCdGdGdTdGdCdCdTdCdCdGdTdCdAdCdGdCdC[invdT]; aptamer),18%,14 nM,–
